Data on 33 compounds can be found in patent US20090311217A1, “3-SUBSTITUTED-1H-INDOLE COMPOUNDS, THEIR USE AS MTOR KINASE AND PI3 KINASE INHIBITORS, AND THEIR SYNTHESES” (priority 2008, published 2009).

The target in one assay is PI3K-alpha (Homo sapiens, UniProt P42336). Kind of assay: PI3K-alpha fluorescence polarization assay. In kind it is biochemical. Conditions: read-out: PI3Kα Avg. IC50.
The target in a further assay is T1, human TOR (Homo sapiens, UniProt P42345).
T1 construct: FLAG
Kind of assay: mTOR enzyme assay (DELFIA, His6-S6K substrate). In kind it is biochemical. Conditions: read-out: mTOR Kinase Avg. IC50.

In general, IC50 refers to the concentration needed to halve the response being measured.

SMILES strings stand for the structures.

PI3K-alpha, sequence (P42336 whole entry, species assumed): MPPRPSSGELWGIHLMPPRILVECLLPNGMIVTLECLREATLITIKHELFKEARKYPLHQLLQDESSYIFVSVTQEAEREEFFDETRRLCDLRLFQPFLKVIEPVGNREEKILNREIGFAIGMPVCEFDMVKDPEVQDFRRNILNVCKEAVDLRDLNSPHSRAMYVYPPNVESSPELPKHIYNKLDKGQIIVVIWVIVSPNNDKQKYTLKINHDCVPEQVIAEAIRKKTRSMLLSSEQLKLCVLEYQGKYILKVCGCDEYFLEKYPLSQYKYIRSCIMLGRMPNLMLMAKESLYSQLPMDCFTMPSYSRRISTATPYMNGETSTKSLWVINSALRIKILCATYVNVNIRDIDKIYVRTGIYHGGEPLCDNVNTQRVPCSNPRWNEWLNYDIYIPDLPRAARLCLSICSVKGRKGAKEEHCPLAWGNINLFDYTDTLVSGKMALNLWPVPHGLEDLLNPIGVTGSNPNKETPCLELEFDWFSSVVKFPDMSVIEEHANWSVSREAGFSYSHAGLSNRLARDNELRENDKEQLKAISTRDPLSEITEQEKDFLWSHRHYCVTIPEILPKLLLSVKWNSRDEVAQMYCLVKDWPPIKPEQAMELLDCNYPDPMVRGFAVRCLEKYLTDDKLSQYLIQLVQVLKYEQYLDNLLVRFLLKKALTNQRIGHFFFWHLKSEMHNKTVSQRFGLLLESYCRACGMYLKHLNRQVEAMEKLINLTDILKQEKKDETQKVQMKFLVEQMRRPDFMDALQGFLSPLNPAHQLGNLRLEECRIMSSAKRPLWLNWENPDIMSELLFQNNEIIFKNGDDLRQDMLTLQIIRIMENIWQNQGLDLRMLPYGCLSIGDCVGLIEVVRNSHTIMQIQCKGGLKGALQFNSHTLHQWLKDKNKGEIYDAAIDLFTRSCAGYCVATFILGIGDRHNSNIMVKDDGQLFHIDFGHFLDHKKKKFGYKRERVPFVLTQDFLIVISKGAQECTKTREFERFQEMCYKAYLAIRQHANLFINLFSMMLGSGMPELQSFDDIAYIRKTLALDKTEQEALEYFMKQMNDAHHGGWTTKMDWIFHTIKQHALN
PI3K-alpha, sequence (P27986 whole entry partner, species assumed): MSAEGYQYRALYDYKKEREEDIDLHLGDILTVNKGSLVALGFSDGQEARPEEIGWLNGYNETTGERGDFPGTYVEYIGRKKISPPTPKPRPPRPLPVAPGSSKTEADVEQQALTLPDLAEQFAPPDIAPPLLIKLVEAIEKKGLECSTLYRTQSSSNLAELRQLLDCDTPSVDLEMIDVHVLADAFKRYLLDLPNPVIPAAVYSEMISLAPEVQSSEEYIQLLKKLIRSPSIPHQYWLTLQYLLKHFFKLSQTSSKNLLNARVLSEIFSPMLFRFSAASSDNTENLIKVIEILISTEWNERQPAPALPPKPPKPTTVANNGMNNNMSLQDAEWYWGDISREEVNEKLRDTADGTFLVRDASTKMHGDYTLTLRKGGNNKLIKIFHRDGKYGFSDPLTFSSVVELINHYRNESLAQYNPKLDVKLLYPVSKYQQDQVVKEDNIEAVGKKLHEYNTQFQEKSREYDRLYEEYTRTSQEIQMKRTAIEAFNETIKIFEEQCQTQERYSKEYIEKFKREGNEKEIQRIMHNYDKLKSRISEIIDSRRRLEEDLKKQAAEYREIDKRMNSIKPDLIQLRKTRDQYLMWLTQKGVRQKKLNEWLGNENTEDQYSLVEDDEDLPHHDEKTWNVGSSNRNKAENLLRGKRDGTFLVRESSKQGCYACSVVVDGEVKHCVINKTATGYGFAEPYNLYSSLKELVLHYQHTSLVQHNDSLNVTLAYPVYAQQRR

With `O=C1/C(=C/c2c(-c3ccc4ccccc4c3)[nH]c3ccccc23)Sc2ccc(Cl)cc21` [Example 285, (2Z)-5-chloro-2-{[2-(2-naphthyl)-1H-indol-3-yl]methylene}-1-benzothiophen-3(2H)-one], the half-inhibitory concentration (IC50) on PI3K-alpha was more than 10 µM; on human TOR, more than 20 µM.

For the compound `O=C1C(=Cc2c(-c3ccc(Cl)cc3)[nH]c3ccccc23)Oc2cccc(O)c21` [Example 76, 2-{[2-(4-chlorophenyl)-1H-indol-3-yl]methylene}-4-hydroxy-1-benzofuran-3(2H)-one], the IC50 on PI3K-alpha was more than 10 µM; on human TOR it was 10 µM.

Consider `NC(=O)Cn1c(-c2ccccc2)c(C=C2Oc3cc(O)cc(O)c3C2=O)c2ccccc21` [Example 161, 2-{3-[(4,6-dihydroxy-3-oxo-1-benzofuran-2(3H)-ylidene)methyl]-2-phenyl-1H-indol-1-yl}acetamide], for which the IC50 is 1.76 µM on PI3K-alpha and 0.6 µM at human TOR.

On to `O=C1C(=Cc2c(Br)[nH]c3ccccc23)Oc2c1ccc(O)c2O` [Example 81, 2-[(2-bromo-1H-indol-3-yl)methylene]-6,7-dihydroxy-1-benzofuran-3(2H)-one], for which the half-inhibitory concentration (IC50) is 0.234 µM at PI3K-alpha and more than 20 µM at human TOR.

Regarding `O=C1C(=Cc2c(-c3ccccc3)n(CCN3CCNCC3)c3ccccc23)Oc2cc(O)cc(O)c21` [Example 160, 4,6-dihydroxy-2-{[2-phenyl-1-(2-piperazin-1-ylethyl)-1H-indol-3-yl]methylene}-1-benzofuran-3(2H)-one], the results for the half-maximal inhibitory concentration (IC50) on PI3K-alpha and on human TOR were 1.01 µM and 0.82 µM, respectively.

Turning to `O=C1/C(=C/c2cn(Cc3ccccc3)c3ccccc23)Oc2cc(O)cc(O)c21` [Example 51, (2Z)-2-[(1-benzyl-1H-indol-3-yl)methylene]-4,6-dihydroxy-1-benzofuran-3(2H)-one], the IC50 was more than 10 µM at PI3K-alpha and more than 5 µM at human TOR.

Take `O=C1C(=Cc2c[nH]c3cccc(OCc4ccccc4)c23)Oc2cc(O)cc(O)c21` [Example 243, 2-{[4-(benzyloxy)-1H-indol-3-yl]methylene}-4,6-dihydroxy-1-benzofuran-3(2H)-one]: the half-inhibitory concentration (IC50) was determined as 1.05 µM on PI3K-alpha and 0.48 µM on human TOR.

For the compound `COC(=O)c1cccc2c(C=C3Oc4cc(O)cc(O)c4C3=O)cn(C)c12` [Example 250, methyl 3-[(4,6-dihydroxy-3-oxo-1-benzofuran-2(3H)-ylidene)methyl]-1-methyl-1H-indole-7-carboxylate], the IC50 on PI3K-alpha was 3.55 µM; at human TOR, more than 20 µM.

Consider `COc1ccc(-c2c(C=C3Oc4cc(O)cc(O)c4C3=O)c3ccccc3n2C)cc1` [Example 195, 4,6-dihydroxy-2-{[2-(4-methoxyphenyl)-1-methyl-1H-indol-3-yl]methylene}-1-benzofuran-3(2H)-one], for which the IC50 on PI3K-alpha came to 1.03 µM; on human TOR, 0.38 µM.

In the case of `O=C1/C(=C/c2c[nH]c3ccc(Cl)cc23)Oc2c1ccc(O)c2O` [Example 63, (2Z)-2-[(5-chloro-1H-indol-3-yl)methylene]-6,7-dihydroxy-1-benzofuran-3(2H)-one], the IC50 at PI3K-alpha was 0.431 µM; on human TOR it was more than 20 µM.

As to `Cn1cc(C=C2Oc3ccccc3C2=O)c2ccccc21` [Example 4, 2-[(1-methyl-1H-indol-3-yl)methylene]-1-benzofuran-3(2H)-one], the results for the IC50 on PI3K-alpha and on human TOR were 12.3 µM and more than 20 µM, respectively.

`O=C1C(=Cc2c[nH]c3c([N+](=O)[O-])cccc23)Oc2cc(O)cc(O)c21` [Example 180, 4,6-dihydroxy-2-[(7-nitro-1H-indol-3-yl)methylene]-1-benzofuran-3(2H)-one]: the concentration for half-maximal inhibition (IC50) is 3.12 µM on PI3K-alpha and more than 20 µM on human TOR.

`COCCn1cc(C=C2Oc3cc(O)cc(O)c3C2=O)c2c(C#N)cccc21` [Example 266, 3-[(4,6-dihydroxy-3-oxo-1-benzofuran-2(3H)-ylidene)methyl]-1-(2-methoxyethyl)-1H-indole-4-carbonitrile]: the IC50 at PI3K-alpha is 0.29 µM; at human TOR, 0.81 µM.

Regarding `Cn1cc(C=C2Oc3cc(O)cc(O)c3C2=O)c2c(O)cccc21` [Example 254, 4,6-dihydroxy-2-[(4-hydroxy-1-methyl-1H-indol-3-yl)methylene]-1-benzofuran-3(2H)-one], the 50% inhibitory concentration (IC50) came to 1.66 µM on PI3K-alpha and 0.65 µM at human TOR.

Regarding `Cn1c(-c2cccc(O)c2)c(C=C2Oc3cc(O)cc(O)c3C2=O)c2ccccc21` [Example 192, 4,6-dihydroxy-2-{[2-(3-hydroxyphenyl)-1-methyl-1H-indol-3-yl]methylene}-1-benzofuran-3(2H)-one], the figures for the IC50 on PI3K-alpha and on human TOR were 2.42 µM and 0.39 µM, respectively.

Regarding `N#Cc1cccc2[nH]cc(C=C3Oc4cc(O)cc(O)c4C3=O)c12` [Example 220, 3-[(4,6-dihydroxy-3-oxo-1-benzofuran-2(3H)-ylidene)methyl]-1H-indole-4-carbonitrile], the concentration for half-maximal inhibition (IC50) on PI3K-alpha is 1.98 µM; on human TOR, 4.3 µM.

Regarding `CCc1cccc2c(C=C3Oc4cc(O)cc(O)c4C3=O)c[nH]c12` [Example 187, 2-[(7-ethyl-1H-indol-3-yl)methylene]-4,6-dihydroxy-1-benzofuran-3(2H)-one], the IC50 at PI3K-alpha is 5 µM; on human TOR, more than 20 µM.

As for `O=C1C(=Cc2c(-c3ccc(F)c(Cl)c3)[nH]c3ccccc23)Oc2cc(O)cc(O)c21` [Example 212, 2-{[2-(3-chloro-4-fluorophenyl)-1H-indol-3-yl]methylene}-4,6-dihydroxy-1-benzofuran-3(2H)-one], the IC50 at PI3K-alpha was determined as 1.06 µM; on human TOR, 0.64 µM.

In the case of `O=C1C(=Cc2c(-c3ccsc3)[nH]c3ccccc23)Oc2cc(O)cc(O)c21` [Example 207, 4,6-dihydroxy-2-{[2-(3-thienyl)-1H-indol-3-yl]methylene}-1-benzofuran-3(2H)-one], the concentration for half-maximal inhibition (IC50) at PI3K-alpha came out at 1.29 µM; on human TOR it was 0.3 µM.

Regarding `COc1ccc2c(c(C=C3Oc4cc(O)cc(O)c4C3=O)cn2CCCC#N)c1C` [Example 239, 4-{3-[(4,6-dihydroxy-3-oxo-1-benzofuran-2(3H)-ylidene)methyl]-5-methoxy-4-methyl-1H-indol-1-yl}butanenitrile], the results for the 50% inhibitory concentration (IC50) at PI3K-alpha and at human TOR were 4.94 µM and 5.9 µM, respectively.

`O=C1C(=Cc2c[nH]c3cc(F)ccc23)Oc2cc(O)cc(O)c21` [Example 176, 2-[(6-fluoro-1H-indol-3-yl)methylene]-4,6-dihydroxy-1-benzofuran-3(2H)-one]: the IC50 on PI3K-alpha stood at 1.55 µM; at human TOR, 8.7 µM.

For `Cc1c(C=C2Oc3cc(O)cc(O)c3C2=O)c2ccccc2n1CCCCl` [Example 93, 2-{[1-(3-chloropropyl)-2-methyl-1H-indol-3-yl]methylene}-4,6-dihydroxy-1-benzofuran-3(2H)-one], the IC50 on PI3K-alpha was 2.38 µM; at human TOR, more than 5 µM.

Consider `CCCn1c(-c2ccccc2)c(C=C2Oc3cc(O)cc(O)c3C2=O)c2ccccc21` [Example 214, 4,6-dihydroxy-2-[(2-phenyl-1-propyl-1H-indol-3-yl)methylene]-1-benzofuran-3(2H)-one], for which the 50% inhibitory concentration (IC50) was 4.91 µM at PI3K-alpha and 2.55 µM at human TOR.

On to `O=C1C(=Cc2c(-c3ccccc3)[nH]c3ccccc23)Oc2cccc(O)c21` [Example 75, 4-hydroxy-2-[(2-phenyl-1H-indol-3-yl)methylene]-1-benzofuran-3(2H)-one], for which the concentration for half-maximal inhibition (IC50) came to 2.52 µM on PI3K-alpha and 5.9 µM at human TOR.

With `Cc1[nH]c2c(Br)cccc2c1C=C1Oc2cc(O)cc(O)c2C1=O` [Example 217, 2-[(7-bromo-2-methyl-1H-indol-3-yl)methylene]-4,6-dihydroxy-1-benzofuran-3(2H)-one], the IC50 worked out at 1.42 µM on PI3K-alpha and 2.4 µM on human TOR.

In the case of `Cn1cc(C=C2Oc3cc(O)cc(O)c3C2=O)c2cccc(Br)c21` [Example 249, 2-[(7-bromo-1-methyl-1H-indol-3-yl)methylene]-4,6-dihydroxy-1-benzofuran-3(2H)-one], the values for the IC50 on PI3K-alpha and at human TOR were 4.81 µM and more than 20 µM, respectively.

With `Cc1c(C=C2Oc3cc(O)cc(O)c3C2=O)c2ccccc2n1CCCl` [Example 92, 2-{[1-(2-chloroethyl)-2-methyl-1H-indol-3-yl]methylene}-4,6-dihydroxy-1-benzofuran-3(2H)-one], the concentration for half-maximal inhibition (IC50) on PI3K-alpha was found to be 2.04 µM; at human TOR it was 2.6 µM.

As to `Cn1cc(C=C2Oc3cc(O)cc(O)c3C2=O)c2c(Br)cccc21` [Example 253, 2-[(4-bromo-1-methyl-1H-indol-3-yl)methylene]-4,6-dihydroxy-1-benzofuran-3(2H)-one], the 50% inhibitory concentration (IC50) turned out to be 1.43 µM at PI3K-alpha and 3.3 µM at human TOR.

With `Cc1c(C=C2Oc3cc(O)cc(O)c3C2=O)c2cccc(Br)c2n1C` [Example 234, 2-[(7-bromo-1,2-dimethyl-1H-indol-3-yl)methylene]-4,6-dihydroxy-1-benzofuran-3(2H)-one], the IC50 is more than 10 µM at PI3K-alpha and 14 µM at human TOR.

For `CC(C)Oc1ccc(-c2c(C=C3Oc4cc(O)cc(O)c4C3=O)c3ccccc3n2C)cc1` [Example 261, 4,6-dihydroxy-2-{[2-(4-isopropoxyphenyl)-1-methyl-1H-indol-3-yl]methylene}-1-benzofuran-3(2H)-one], the figures for the half-maximal inhibitory concentration (IC50) on PI3K-alpha and at human TOR were 1.98 µM and 0.68 µM, respectively.

Take `COC(=O)c1cccc2[nH]cc(C=C3Oc4cc(O)cc(O)c4C3=O)c12` [Example 222, methyl 3-[(4,6-dihydroxy-3-oxo-1-benzofuran-2(3H)-ylidene)methyl]-1H-indole-4-carboxylate]: the results for the IC50 at PI3K-alpha and at human TOR were 4.46 µM and 2.1 µM, respectively.

With `COC(=O)c1cccc2c1c(C=C1Oc3cc(O)cc(O)c3C1=O)cn2C` [Example 267, methyl 3-[(4,6-dihydroxy-3-oxo-1-benzofuran-2(3H)-ylidene)methyl]-1-methyl-1H-indole-4-carboxylate], the half-maximal inhibitory concentration (IC50) at PI3K-alpha stood at 2.06 µM; on human TOR, 0.086 µM.

As to `O=C1C(=Cc2c[nH]c3cc4c(cc23)OCO4)Oc2cc(O)cc(O)c21` [Example 168, 2-(5H-[1,3]dioxolo[4,5-f]indol-7-ylmethylene)-4,6-dihydroxy-1-benzofuran-3(2H)-one], the values for the concentration for half-maximal inhibition (IC50) on PI3K-alpha and on human TOR were 6.54 µM and more than 20 µM, respectively.
